Among the data in ChEMBL document CHEMBL4382233, “Discovery of novel arylethenesulfonyl fluorides as potential candidates against methicillin-resistant of Staphylococcus aureus (MRSA) for overcoming multidrug resistance of bacterial infections” (2019) are MIC99 and zone of inhibition values, retold here.

Values after ≈ are worked out from the molar mass of the structure shown.

Holding throughout (format): functional
The subject of assay [1] is Staphylococcus aureus. As to the kind of experiment: Antibacterial activity against methicillin-resistant Staphylococcus aureus after overnight incubation by micro broth dilution analysis. (In general: Dilution methods test growth across graded concentrations, often in twofold steps.)
The subject of assay [2] is Staphylococcus haemolyticus. The assay is described as follows: Antibacterial activity against methicillin-resistant Staphylococcus haemolyticus assessed as zone of inhibition at 50 ug/mL after 24 hrs by agar disc diffusion method. The settings on record: read-out: IZ.
The subject of assay [3] is Staphylococcus epidermidis. The assay is described as follows: Antibacterial activity against methicillin-resistant Staphylococcus epidermidis after overnight incubation by micro broth dilution analysis.
The subject of assay [4] is Staphylococcus aureus. As to the kind of experiment: Antibacterial activity against methicillin-resistant Staphylococcus aureus assessed as zone of inhibition at 50 ug/mL after 24 hrs by agar disc diffusion method. The settings on record: read-out: IZ. On the technique in general: A growth-free zone around the sample is the usual read-out of agar diffusion tests.
In assay [5] the test system is Staphylococcus epidermidis. The assay is described as follows: Antibacterial activity against methicillin-resistant Staphylococcus epidermidis assessed as zone of inhibition at 20 ug/mL after 24 hrs by agar disc diffusion method. As to conditions: read-out: IZ.
For assay [6], the system named is Staphylococcus haemolyticus. As to the kind of experiment: Antibacterial activity against methicillin-resistant Staphylococcus haemolyticus after overnight incubation by micro broth dilution analysis.

Usually MIC99 stands for the lowest concentration that inhibits either 99% of growth or 99% of the strains tested, depending on the study. Higher therefore signals weaker potency. Regarding `O=S(=O)(F)/C=C/c1ccc(Oc2ccccc2)cc1`, the MIC99 turned out to be 51.2 µg/mL (≈ 184 µM) in assay [1], 44.2 µg/mL (≈ 159 µM) in assay [3] and 61.1 µg/mL (≈ 220 µM) in assay [6]. In addition, the zone of inhibition at 50 µg/mL is 4.1 mm in assay [2] and 4.4 mm in assay [4]. Moreover, in assay [5], the zone of inhibition at 20 µg/mL is 6.4 mm.
For `Cc1ccc(S(=O)(=O)n2c3ccccc3c3cc(/C=C/S(=O)(=O)F)ccc32)cc1`, the MIC99 in assay [1] came out at 48 µg/mL (≈ 112 µM); in assay [3], 50.1 µg/mL (≈ 117 µM); in assay [6], 58 µg/mL (≈ 135 µM). Also, the values for the zone of inhibition at 50 µg/mL in assay [2] and in assay [4] were 3.3 mm and 4.3 mm, respectively. The zone of inhibition at 20 µg/mL in assay [5] amounted to 3.5 mm.
For `O=S(=O)(F)/C=C/c1cccc(/C=C/S(=O)(=O)F)c1`, the MIC99 was 44.1 µg/mL (≈ 150 µM) in assay [1], 41.2 µg/mL (≈ 140 µM) in assay [3] and 50 µg/mL (≈ 170 µM) in assay [6]. For the same compound, the results for the zone of inhibition at 50 µg/mL in assay [2] and in assay [4] were 4.4 mm and 4.2 mm, respectively. Moreover, in assay [5], the zone of inhibition at 20 µg/mL amounted to 6.5 mm.
As to `O=Cc1ccccc1/C=C/S(=O)(=O)F`, the values for the MIC99 in assay [1], in assay [3] and in assay [6] were 47.2 µg/mL (≈ 220 µM), 52.1 µg/mL (≈ 243 µM) and 44.1 µg/mL (≈ 206 µM), respectively. For the same compound, the zone of inhibition at 50 µg/mL amounted to 4.2 mm in assay [2] and 6.1 mm in assay [4]. Also, in assay [5], the zone of inhibition at 20 µg/mL is 4.3 mm.
For `O=C(O)c1ccc(/C=C/S(=O)(=O)F)cc1`, the MIC99 in assay [1] worked out at 55.3 µg/mL (≈ 240 µM); in assay [3] it was 50.1 µg/mL (≈ 217 µM); in assay [6], 43.3 µg/mL (≈ 188 µM). Besides, the zone of inhibition at 50 µg/mL is 3.3 mm in assay [2] and 7.2 mm in assay [4]. In assay [5], the zone of inhibition at 20 µg/mL came out at 6.5 mm.
For the compound `O=S(=O)(F)/C=C/c1cnn(-c2ccccc2)c1`, the MIC99 in assay [1] turned out to be 51.2 µg/mL (≈ 203 µM); in assay [3], 52.3 µg/mL (≈ 207 µM); in assay [6], 51.1 µg/mL (≈ 203 µM). Moreover, the values for the zone of inhibition at 50 µg/mL in assay [2] and in assay [4] were 3.5 mm and 3.1 mm, respectively. Also, the zone of inhibition at 20 µg/mL in assay [5] amounted to 4.3 mm.
In the case of `CCOC(=O)c1cccc(/C=C/S(=O)(=O)F)c1`, the MIC99 was determined as 40.6 µg/mL (≈ 157 µM) in assay [1], 53 µg/mL (≈ 205 µM) in assay [3] and 50.2 µg/mL (≈ 194 µM) in assay [6]. The zone of inhibition at 50 µg/mL is 4.3 mm in assay [2] and 4.2 mm in assay [4]. Further, the zone of inhibition at 20 µg/mL in assay [5] amounted to 4.2 mm.
Consider `O=S(=O)(F)/C=C/c1ccc(-c2ccccc2)cc1`, for which the MIC99 in assay [1] was found to be 53.2 µg/mL (≈ 203 µM); in assay [3], 65.1 µg/mL (≈ 248 µM); in assay [6] it was 56.1 µg/mL (≈ 214 µM). In addition, the zone of inhibition at 50 µg/mL turned out to be 3.5 mm in assay [2] and 4.3 mm in assay [4]. For the same compound, in assay [5], the zone of inhibition at 20 µg/mL was 5.1 mm.
Regarding `O=Cc1ccc(/C=C/S(=O)(=O)F)o1`, the MIC99 is 0.845 µg/mL (≈ 4.14 µM) in assay [1], 61 µg/mL (≈ 299 µM) in assay [3] and 55.1 µg/mL (≈ 270 µM) in assay [6]. Further, the zone of inhibition at 50 µg/mL in assay [2] is 4.5 mm; in assay [4] it was 7.2 mm. In assay [5], the zone of inhibition at 20 µg/mL amounted to 7.4 mm.
Regarding `Cc1ccc(S(=O)(=O)n2ccc3cc(/C=C/S(=O)(=O)F)ccc32)cc1`, the MIC99 came out at 60.6 µg/mL (≈ 160 µM) in assay [1], 66 µg/mL (≈ 174 µM) in assay [3] and 61 µg/mL (≈ 161 µM) in assay [6]. For the same compound, the results for the zone of inhibition at 50 µg/mL in assay [2] and in assay [4] were 3.5 mm and 4.2 mm, respectively. Also, the zone of inhibition at 20 µg/mL in assay [5] was 4.3 mm.
In the case of `O=S(=O)(F)/C=C/C=C/c1ccc(F)c(F)c1`, the values for the MIC99 in assay [1], in assay [3] and in assay [6] were 50.1 µg/mL (≈ 202 µM), 51.6 µg/mL (≈ 208 µM) and 55.1 µg/mL (≈ 222 µM), respectively. For the same compound, the zone of inhibition at 50 µg/mL in assay [2] was 4.3 mm; in assay [4] it was 6.1 mm. The zone of inhibition at 20 µg/mL in assay [5] was determined as 5.5 mm.
Consider `O=S(=O)(F)/C=C/C=C/c1ccc(Br)cc1`, for which the MIC99 in assay [1] stood at 51.1 µg/mL (≈ 176 µM); in assay [3], 57 µg/mL (≈ 196 µM); in assay [6], 70 µg/mL (≈ 241 µM). Further, the zone of inhibition at 50 µg/mL in assay [2] and in assay [4] was 4.5 mm throughout. Also, in assay [5], the zone of inhibition at 20 µg/mL was 5.4 mm.
`Cc1ccc(/C=C/C=C/S(=O)(=O)F)cc1`: the MIC99 worked out at 60.6 µg/mL (≈ 268 µM) in assay [1], 57 µg/mL (≈ 252 µM) in assay [3] and 51 µg/mL (≈ 225 µM) in assay [6]. Also, the zone of inhibition at 50 µg/mL in assay [2] is 4.3 mm; in assay [4] it was 4.1 mm. Moreover, in assay [5], the zone of inhibition at 20 µg/mL came out at 4.1 mm.
With `CCc1ccc(/C=C/S(=O)(=O)F)cc1`, the MIC99 in assay [1] amounted to 45.1 µg/mL (≈ 211 µM); in assay [3], 56.2 µg/mL (≈ 262 µM); in assay [6], 60 µg/mL (≈ 280 µM). The zone of inhibition at 50 µg/mL stood at 3.5 mm in assay [2] and 5.1 mm in assay [4]. In addition, the zone of inhibition at 20 µg/mL in assay [5] stood at 6.1 mm.
`O=S(=O)(F)/C=C/c1cccs1`: the MIC99 in assay [1] was determined as 52 µg/mL (≈ 271 µM); in assay [3], 50.1 µg/mL (≈ 260 µM); in assay [6], 50.6 µg/mL (≈ 263 µM). The zone of inhibition at 50 µg/mL in assay [2] turned out to be 4.1 mm; in assay [4], 5.2 mm. Besides, the zone of inhibition at 20 µg/mL in assay [5] was 4.5 mm.
Regarding `COc1ccc(/C=C/S(=O)(=O)F)cc1`, the MIC99 in assay [1] came to 48.1 µg/mL (≈ 222 µM); in assay [3] it was 51.3 µg/mL (≈ 237 µM); in assay [6], 68.2 µg/mL (≈ 315 µM). The figures for the zone of inhibition at 50 µg/mL in assay [2] and in assay [4] were 6.3 mm and 52 mm, respectively. Moreover, the zone of inhibition at 20 µg/mL in assay [5] was 60.4 mm.
